Laboratory results reported in patent publication US20200370102A1, “BIOMARKER INDICATING RESPONSE TO POZIOTINIB THERAPY FOR CANCER” (HANMI PHARM. CO., LTD., priority 2017, published 2020).

How the values were obtained:
[1] = tested on: HER2-positive metastatic breast cancer; assay: open-label, multicenter study of poziotinib monotherapy in breast cancer patients, with genotype (NGS) analysis; format: in vivo, human
Description: Poziotinib is a pan-HER inhibitor small molecule breast cancer therapeutic agent under clinical development. […] Recently, through an open-label, multicenter, two-phase study of poziotinib monotherapy, it was evaluated whether poziotinib was an option for breast cancer patients with HER2-positive metastatic breast cancer who twice or more experienced the failure of 2 HER2 target treatments. The genetic profile of HER2-positive metastatic breast cancer was evaluated, and the potential biomarkers of poziotinib for HER2-positive metastatic breast cancer (MBC) were investigated.
The experimental method is as follows. All participants with MBC were diagnosed with HER2-positive metastatic breast cancer according to the American Society of Clinical Oncology/College of-American Pathologist Her2 guideline. Fresh tissue samples or FFPE samples were obtained from these patients and used to extract DNA and RNA for next generation sequencing (NGS).
DNA and RNA were extracted from the samples and NGS was performed thereon. Targeted deep sequencing was performed by using a customized 381 cancer gene panel (CancerSCAN™, Samsung Hospital, Inc.) and the correlation among sequencing data, immunohistochemistry, and clinical outcome was analyzed.
An effective amount of poziotinib was administered to the breast cancer patients. The prognosis of the patients was observed. Prognosis was classified into partial remission (PR), stable disease (SD), and progressive disease (PD). For each patient, progressive free survival (PFS) was also identified.
From April 2015 to February 2016, 106 patients enrolled for clinical trials. Biomarker data were available for 75 of these patients.

[2] = tested on: EGFR family including Her1, Her2, and Her4; conditions: cited from earlier work
[3] = tested on: cancer cells having overexpression of Her1 or Her2 or activated mutations; conditions: in vitro, various carcinomas; cited from earlier work
[4] = tested on: lung cancer cells resistant to gefitinib or erlotinib; conditions: cited from earlier work
transplanted tumor cells = conditions: xenotransplantation animal model; cited from earlier work
[5] = among the 75 patients with biomarker data

C=CC(=O)N1CCC(Oc2cc3c(Nc4ccc(Cl)c(Cl)c4F)ncnc3cc2OC)CC1 [Poziotinib, 1-[4-[4-(3,4-dichloro-2-fluoroanilino)-7-methoxyquinazolin-6-yl]oxypiperidin-1-yl]prop-2-en-1-one]
prognosis after poziotinib by genotype ([1]; BARD1 gene mutation present (mutation number=9)): poor prognosis
prognosis after poziotinib by genotype ([1]; CDK12 copy number amplification (42 subjects)): good prognosis
prognosis after poziotinib by genotype ([1]; ERBB3 gene mutation present (mutation number=10)): poor prognosis
prognosis after poziotinib by genotype ([1]; NOTCH gene mutation present (mutation number=13)): good prognosis
prognosis after poziotinib by genotype ([1]; PIK3CA gene mutation present (mutation number=34)): poor prognosis
prognosis after poziotinib by genotype ([1]; SETBP1 gene mutation present (mutation number=13)): poor prognosis
prognosis after poziotinib by genotype ([1]; SH2B3 gene mutation present (mutation number=6)): good prognosis
number of patients with partial remission (PR) [1, 5]: 14
number of patients with progressive disease (PD) [1, 5]: 20
prognosis after poziotinib by genotype ([1]; copy number amplification of the ERBB2 gene): good prognosis
prognosis after poziotinib by genotype ([1]; copy number deletion of the BRCA1 gene): bad prognosis
prognosis after poziotinib by genotype ([1]; copy number deletion of the STAT3 gene): bad prognosis
prognosis after poziotinib by genotype ([1]; deletion or amplification of the FGFR3 gene (copy number variations=5)): bad prognosis
prognosis of patients with ERBB2 gene or upstream mutations ([1]; patients 1 to 10 of the 13 patients with ERBB2 mutations, FIG. 13): partial remission and stable disease
inhibition of the EGFR family [2]: selectively and irreversibly inhibits
growth of cancer cells [3]: inhibits the growth of cancer cells
growth of lung cancer cells [4]: effectively inhibits the growth
tumor growth (transplanted tumor cells): effectively blocks tumor growth
